The record followed here is US9346815B2, “5-chloro-2-difluoromethoxyphenyl pyrazolopyrimidine compounds, compositions and methods of use thereof” (Genentech, Inc., priority 2014, dated 2016).

One may read the Ki as a dissociation constant, usually derived from enzyme kinetics or from competition with a known ligand.

Structures can show the parent of a compound that is named as a salt.

The target in assay [1] is isolated recombinant JAK1 kinase domain (Homo sapiens (Human), UniProt P23458). Nature of the assay: JAK1 enzyme assay (Caliper LabChip, peptide phosphorylation). The conditions noted are these: isolated recombinant JAK1 kinase domain, 25 μM ATP. Format: biochemical.
isolated recombinant JAK1 kinase domain, sequence (P23458 875-1153): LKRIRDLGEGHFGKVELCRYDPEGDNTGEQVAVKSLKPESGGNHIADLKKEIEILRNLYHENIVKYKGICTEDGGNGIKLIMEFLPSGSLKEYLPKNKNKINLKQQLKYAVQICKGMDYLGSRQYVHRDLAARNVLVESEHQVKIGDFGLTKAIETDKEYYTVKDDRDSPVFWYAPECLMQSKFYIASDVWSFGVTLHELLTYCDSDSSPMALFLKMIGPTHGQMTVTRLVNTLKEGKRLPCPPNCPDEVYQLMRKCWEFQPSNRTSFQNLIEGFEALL
Assay [2] addresses isolated recombinant JAK2 kinase domain (Homo sapiens (Human), UniProt O60674). The experiment in a line: JAK2 enzyme assay (Caliper LabChip, peptide phosphorylation). The class given is biochemical. The note with it: 25 μM ATP.
The subject of assay [3] is JAK1-dependent STAT6 phosphorylation downstream of IL-13 stimulation in TF-1 human erythroleukemia cells. Nature of the assay: JAK1 pathway assay in TF-1 cells (IL-13-pSTAT6, MSD). The class given is cell-based. The note with it: Homo sapiens, TF-1, TF-1 cells, read-out: IL13-pSTAT6 EC50_TF-1. The procedure, abridged: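 Inhibitors were added to TF-1 cells (GM-CSF-starved, serum-free) for 30 min or to BEAS-2B cells (complete medium) for 1 hr at 37° C. MSD detected pSTAT6.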

isolated recombinant JAK2 kinase domain, sequence (O60674 849-1124): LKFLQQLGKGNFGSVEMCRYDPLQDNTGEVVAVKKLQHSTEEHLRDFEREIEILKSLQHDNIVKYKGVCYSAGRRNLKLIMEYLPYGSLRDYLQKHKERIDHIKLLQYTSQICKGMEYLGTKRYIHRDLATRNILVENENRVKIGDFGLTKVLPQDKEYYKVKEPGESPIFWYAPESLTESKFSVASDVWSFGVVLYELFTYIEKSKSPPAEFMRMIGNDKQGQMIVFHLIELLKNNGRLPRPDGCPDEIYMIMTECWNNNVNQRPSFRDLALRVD

As for `CCCCN(CC(F)(F)F)C1CCN(C(=O)Cn2cc(NC(=O)c3cnn4cccnc34)c(-c3cc(Cl)ccc3OC(F)F)n2)CC1` [Example 115, N-[1-[2-[4-[butyl(2,2,2-trifluoroethyl)amino]-1-piperidyl]-2-oxo-ethyl]-3-[5-chloro-2-(difluoromethoxy)phenyl]pyrazol-4-yl]pyrazolo[1,5-a]pyrimidine-3-carboxamide], the Ki was determined as 1.28 nM in assay [1] and 2.48 nM in assay [2]. In addition, the EC50 in assay [3] turned out to be 57.7 nM.
On to `CC(=O)NCCCN1CCC(n2cc(NC(=O)c3cnn4cccnc34)c(-c3cc(Cl)ccc3OC(F)F)n2)CC1` [Example 142, Pyrazolo[1,5-a]pyrimidine-3-carboxylic acid [1-[1-(3-acetylaminopropyl)piperidin-4-yl]-3-(5-chloro-2-difluoromethoxyphenyl)-1H-pyrazol-4-yl]amide hydrochloride], for which the Ki in assay [1] is 1.65 nM; in assay [2] it was 0.38 nM. For the same compound, the EC50 in assay [3] is 36.3 nM.
Consider `O=C(Nc1sc(N2CCC(N3CC(F)C3)CC2)nc1-c1cc(Cl)ccc1OC(F)F)c1cnn2cccnc12` [Example 194, N-[4-[5-chloro-2-(difluoromethoxy)phenyl]-2-[4-(3-fluoroazetidin-1-yl)-1-piperidyl]thiazol-5-yl]pyrazolo[1,5-a]pyrimidine-3-carboxamide], for which the Ki in assay [1] came to 2.28 nM; in assay [2] it was 1.44 nM. Further, the EC50 in assay [3] amounted to 17.4 nM.
For `CN(C)C1CCN(C(=O)Cn2cc(NC(=O)c3c(N)nn4cccnc34)c(-c3cc(Cl)ccc3OC(F)F)n2)CC1` [Example 139, 2-amino-N-[3-[5-chloro-2-(difluoromethoxy)phenyl]-1-[2-[4-(dimethylamino)-1-piperidyl]-2-oxo-ethyl]pyrazol-4-yl]pyrazolo[1,5-a]pyrimidine-3-carboxamide] the same measures were 0.78 nM, 0.36 nM and 40.2 nM.
The like results for `CN(C)C1CCN(C(=O)c2ccc(-c3nc(-c4cc(Cl)ccc4OC(F)F)c(NC(=O)c4cnn5cccnc45)s3)cc2)CC1` [Example 253, Pyrazolo[1,5-a]pyrimidine-3-carboxylic acid {4-(5-chloro-2-difluoromethoxy-phenyl)-2-[4-(4-dimethylamino-piperidine-1-carbonyl)-phenyl]-thiazol-5-yl}-amide hydrochloride] were, in that order, 0.56 nM, 0.41 nM and 18.3 nM.
The like results for `O=C(Nc1cn(CC(=O)N2CCC(NCCc3ccccc3)CC2)nc1-c1cc(Cl)ccc1OC(F)F)c1cnn2cccnc12` [Example 89, N-[3-[5-chloro-2-(difluoromethoxy)phenyl]-1-[2-oxo-2-[4-(2-phenylethylamino)-1-piperidyl]ethyl]pyrazol-4-yl]pyrazolo[1,5-a]pyrimidine-3-carboxamide] were, in that order, 0.88 nM, 1.45 nM and 22.7 nM.
In the case of `CN1CCC2(CC1)CCN(C(=O)Cn1cc(NC(=O)c3cnn4cccnc34)c(-c3cc(Cl)ccc3OC(F)F)n1)C2` [Example 222, N-[3-[5-chloro-2-(difluoromethoxy)phenyl]-1-[2-(8-methyl-2,8-diazaspiro[4.5]decan-2-yl)-2-oxo-ethyl]pyrazol-4-yl]pyrazolo[1,5-a]pyrimidine-3-carboxamide], the Ki in assay [1] was 0.54 nM; in assay [2], 1.59 nM. Also, in assay [3], the EC50 came to 28.9 nM.
For `CN(CCOc1ccccc1)C1CCN(C(=O)Cn2cc(NC(=O)c3cnn4cccnc34)c(-c3cc(Cl)ccc3OC(F)F)n2)CC1` [Example 100, N-[3-[5-chloro-2-(difluoromethoxy)phenyl]-1-[2-[4-[methyl(2-phenoxyethyl)amino]-1-piperidyl]-2-oxo-ethyl]pyrazol-4-yl]pyrazolo[1,5-a]pyrimidine-3-carboxamide] the same measures were 0.84 nM, 2.01 nM and 5.4 nM.
The like results for `CN(CCc1ccccc1)C1CCN(c2nc(-c3cc(Cl)ccc3OC(F)F)c(NC(=O)c3cnn4cccnc34)s2)CC1` [Example 192, N-[4-[5-chloro-2-(difluoromethoxy)phenyl]-2-[4-[methyl(2-phenylethyl)amino]-1-piperidyl]thiazol-5-yl]pyrazolo[1,5-a]pyrimidine-3-carboxamide] were, in that order, 5 nM, 3.72 nM and 272 nM.
The like results for `CN(CCC1CCCCC1)C1CCN(C(=O)Cn2cc(NC(=O)c3cnn4cccnc34)c(-c3cc(Cl)ccc3OC(F)F)n2)CC1` [Example 101, N-[3-[5-chloro-2-(difluoromethoxy)phenyl]-1-[2-[4-[2-cyclohexyl-ethyl(methyl)amino]-1-piperidyl]-2-oxo-ethyl]pyrazol-4-yl]pyrazolo[1,5-a]pyrimidine-3-carboxamide] were, in that order, 0.67 nM, 1.77 nM and 16.5 nM.
On to `CN(C)CC1CCN(C(=O)Cn2cc(NC(=O)c3cnn4cccnc34)c(-c3cc(Cl)ccc3OC(F)F)n2)CC1` [Example 70, N-[3-[5-chloro-2-(difluoromethoxy)phenyl]-1-[2-[4-[(dimethylamino)methyl]-1-piperidyl]-2-oxo-ethyl]pyrazol-4-yl]pyrazolo[1,5-a]pyrimidine-3-carboxamide], for which the results for the Ki in assay [1] and in assay [2] were 0.67 nM and 2.38 nM, respectively. In addition, in assay [3], the EC50 was found to be 16.1 nM.
For `CNC(=O)CCN1CCC(n2cc(NC(=O)c3cnn4cccnc34)c(-c3cc(Cl)ccc3OC(F)F)n2)CC1` [Example 160, N-[3-[5-chloro-2-(difluoromethoxy)phenyl]-1-[1-[3-(methylamino)-3-oxo-propyl]-4-piperidyl]pyrazol-4-yl]pyrazolo[1,5-a]pyrimidine-3-carboxamide] the same measures were 3.02 nM, 0.39 nM and 19.3 nM.
The like results for `O=C(Nc1sc(N2CCN(CC(F)(F)F)CC2)nc1-c1cc(Cl)ccc1OC(F)F)c1cnn2cccnc12` [Example 208, N-[4-[5-chloro-2-(difluoromethoxy)phenyl]-2-[4-(2,2,2-trifluoroethyl)piperazin-1-yl]thiazol-5-yl]pyrazolo[1,5-a]pyrimidine-3-carboxamide] were, in that order, 1.38 nM, 1.08 nM and 33.5 nM.
For `O=C(Nc1cn(CC(=O)N2C[C@H]3CN(CCCN4CCCC4=O)C[C@H]3C2)nc1-c1cc(Cl)ccc1OC(F)F)c1cnn2cccnc12` [Example 18, N-[1-[2-[(3aR,6aS)-2-[3-(2-oxopyrrolidin-1-yl)propyl]-1,3,3a,4,6,6a-hexahydropyrrolo[3,4-c]pyrrol-5-yl]-2-oxo-ethyl]-3-[5-chloro-2-(difluoromethoxy)phenyl]pyrazol-4-yl]pyrazolo[1,5-a]pyrimidine-3-carboxamide] the same measures were 0.56 nM, 0.56 nM and 274 nM.
On to `CN(C)CC1(O)CCN(C(=O)Cn2cc(NC(=O)c3cnn4cccnc34)c(-c3cc(Cl)ccc3OC(F)F)n2)CC1` [Example 74, N-[3-[5-chloro-2-(difluoromethoxy)phenyl]-1-[2-[4-[(dimethylamino)methyl]-4-hydroxy-1-piperidyl]-2-oxo-ethyl]pyrazol-4-yl]pyrazolo[1,5-a]pyrimidine-3-carboxamide], for which the values for the Ki in assay [1] and in assay [2] were 0.97 nM and 2.42 nM, respectively. For the same compound, the EC50 in assay [3] was 38.5 nM.
The like results for `CN(Cc1cccc(Br)c1)C1CCN(C(=O)Cn2cc(NC(=O)c3cnn4cccnc34)c(-c3cc(Cl)ccc3OC(F)F)n2)CC1` [Example 122, N-[1-[2-[4-[(3-bromophenyl)methyl-methyl-amino]-1-piperidyl]-2-oxo-ethyl]-3-[5-chloro-2-(difluoromethoxy)phenyl]pyrazol-4-yl]pyrazolo[1,5-a]pyrimidine-3-carboxamide] were, in that order, 0.27 nM, 0.17 nM and 24.9 nM.
The like results for `CN(C)CCC1CCN(c2nc(-c3cc(Cl)ccc3OC(F)F)c(NC(=O)c3cnn4cccnc34)s2)CC1` [Example 191, N-[4-[5-chloro-2-(difluoromethoxy)phenyl]-2-[4-[2-(dimethylamino)ethyl]-1-piperidyl]thiazol-5-yl]pyrazolo[1,5-a]pyrimidine-3-carboxamide] were, in that order, 2.93 nM, 2.92 nM and 10.5 nM.
For `O=C(Nc1cn(CC(=O)N2C[C@@H]3CN(C(=O)OCCCO)C[C@@H]3C2)nc1-c1cc(Cl)ccc1OC(F)F)c1cnn2cccnc12` [Example 15, 3-hydroxypropyl (3aR,6aS)-2-[2-[3-[5-chloro-2-(difluoromethoxy)phenyl]-4-(pyrazolo[1,5-a]pyrimidine-3-carbonylamino)pyrazol-1-yl]acetyl]-1,3,3a,4,6,6a-hexahydropyrrolo[3,4-c]pyrrole-5-carboxylate] the same measures were 0.53 nM, 0.93 nM and 334 nM.
Take `CN(C)Cc1ccc(-c2nc(-c3cc(Cl)ccc3OC(F)F)c(NC(=O)c3cnn4cccnc34)s2)cc1` [Example 255, N-[4-[5-chloro-2-(difluoromethoxy)phenyl]-2-[4-[(dimethylamino)methyl]phenyl]thiazol-5-yl]pyrazolo[1,5-a]pyrimidine-3-carboxamide]: the values for the Ki in assay [1] and in assay [2] were 0.56 nM and 0.4 nM, respectively. Also, the EC50 in assay [3] came to 86.2 nM.
As to `CN(CC1(C)COC1)C1CCN(C(=O)Cn2cc(NC(=O)c3cnn4cccnc34)c(-c3cc(Cl)ccc3OC(F)F)n2)CC1` [Example 96, N-[3-[5-chloro-2-(difluoromethoxy)phenyl]-1-[2-[4-[methyl-[(3-methyloxetan-3-yl)methyl]amino]-1-piperidyl]-2-oxo-ethyl]pyrazol-4-yl]pyrazolo[1,5-a]pyrimidine-3-carboxamide], the Ki in assay [1] is 0.63 nM; in assay [2] it was 1.4 nM. The EC50 in assay [3] came to 4.1 nM.
